Each block holds one compound with its values, some of them ahead of it.
Legend:
[1] = target: Serine/threonine-protein kinase ATR (Homo sapiens, UniProt Q13535); experiment: Inhibition of Ataxia telangiectasia related protein ATR kinase
[2] = target: Serine-protein kinase ATM (Homo sapiens, UniProt Q13315); experiment: Inhibition of Mutated in ataxia telangiectasia protein ATM kinase
[3] = target: Serine/threonine-protein kinase mTOR (Homo sapiens, UniProt P42345); experiment: Inhibition of Mammalian target of Rapamycin mTOR
[4] = target: Phosphatidylinositol 4,5-bisphosphate 3-kinase catalytic subunit alpha isoform (Homo sapiens, UniProt P42336); experiment: Inhibition of Phosphatidylinositol 3-kinase p110 alpha subunit
[5] = target: T1, DNA-dependent protein kinase catalytic subunit (Homo sapiens, UniProt P78527); experiment: Inhibitory activity against DNA-dependent protein kinase (DNA-PK) at 0.5 uM
[6] = target: T1, DNA-dependent protein kinase catalytic subunit; experiment: Inhibitory activity against DNA-dependent protein kinase (DNA-PK)

Sequence of Serine/threonine-protein kinase ATR (Q13535 whole entry): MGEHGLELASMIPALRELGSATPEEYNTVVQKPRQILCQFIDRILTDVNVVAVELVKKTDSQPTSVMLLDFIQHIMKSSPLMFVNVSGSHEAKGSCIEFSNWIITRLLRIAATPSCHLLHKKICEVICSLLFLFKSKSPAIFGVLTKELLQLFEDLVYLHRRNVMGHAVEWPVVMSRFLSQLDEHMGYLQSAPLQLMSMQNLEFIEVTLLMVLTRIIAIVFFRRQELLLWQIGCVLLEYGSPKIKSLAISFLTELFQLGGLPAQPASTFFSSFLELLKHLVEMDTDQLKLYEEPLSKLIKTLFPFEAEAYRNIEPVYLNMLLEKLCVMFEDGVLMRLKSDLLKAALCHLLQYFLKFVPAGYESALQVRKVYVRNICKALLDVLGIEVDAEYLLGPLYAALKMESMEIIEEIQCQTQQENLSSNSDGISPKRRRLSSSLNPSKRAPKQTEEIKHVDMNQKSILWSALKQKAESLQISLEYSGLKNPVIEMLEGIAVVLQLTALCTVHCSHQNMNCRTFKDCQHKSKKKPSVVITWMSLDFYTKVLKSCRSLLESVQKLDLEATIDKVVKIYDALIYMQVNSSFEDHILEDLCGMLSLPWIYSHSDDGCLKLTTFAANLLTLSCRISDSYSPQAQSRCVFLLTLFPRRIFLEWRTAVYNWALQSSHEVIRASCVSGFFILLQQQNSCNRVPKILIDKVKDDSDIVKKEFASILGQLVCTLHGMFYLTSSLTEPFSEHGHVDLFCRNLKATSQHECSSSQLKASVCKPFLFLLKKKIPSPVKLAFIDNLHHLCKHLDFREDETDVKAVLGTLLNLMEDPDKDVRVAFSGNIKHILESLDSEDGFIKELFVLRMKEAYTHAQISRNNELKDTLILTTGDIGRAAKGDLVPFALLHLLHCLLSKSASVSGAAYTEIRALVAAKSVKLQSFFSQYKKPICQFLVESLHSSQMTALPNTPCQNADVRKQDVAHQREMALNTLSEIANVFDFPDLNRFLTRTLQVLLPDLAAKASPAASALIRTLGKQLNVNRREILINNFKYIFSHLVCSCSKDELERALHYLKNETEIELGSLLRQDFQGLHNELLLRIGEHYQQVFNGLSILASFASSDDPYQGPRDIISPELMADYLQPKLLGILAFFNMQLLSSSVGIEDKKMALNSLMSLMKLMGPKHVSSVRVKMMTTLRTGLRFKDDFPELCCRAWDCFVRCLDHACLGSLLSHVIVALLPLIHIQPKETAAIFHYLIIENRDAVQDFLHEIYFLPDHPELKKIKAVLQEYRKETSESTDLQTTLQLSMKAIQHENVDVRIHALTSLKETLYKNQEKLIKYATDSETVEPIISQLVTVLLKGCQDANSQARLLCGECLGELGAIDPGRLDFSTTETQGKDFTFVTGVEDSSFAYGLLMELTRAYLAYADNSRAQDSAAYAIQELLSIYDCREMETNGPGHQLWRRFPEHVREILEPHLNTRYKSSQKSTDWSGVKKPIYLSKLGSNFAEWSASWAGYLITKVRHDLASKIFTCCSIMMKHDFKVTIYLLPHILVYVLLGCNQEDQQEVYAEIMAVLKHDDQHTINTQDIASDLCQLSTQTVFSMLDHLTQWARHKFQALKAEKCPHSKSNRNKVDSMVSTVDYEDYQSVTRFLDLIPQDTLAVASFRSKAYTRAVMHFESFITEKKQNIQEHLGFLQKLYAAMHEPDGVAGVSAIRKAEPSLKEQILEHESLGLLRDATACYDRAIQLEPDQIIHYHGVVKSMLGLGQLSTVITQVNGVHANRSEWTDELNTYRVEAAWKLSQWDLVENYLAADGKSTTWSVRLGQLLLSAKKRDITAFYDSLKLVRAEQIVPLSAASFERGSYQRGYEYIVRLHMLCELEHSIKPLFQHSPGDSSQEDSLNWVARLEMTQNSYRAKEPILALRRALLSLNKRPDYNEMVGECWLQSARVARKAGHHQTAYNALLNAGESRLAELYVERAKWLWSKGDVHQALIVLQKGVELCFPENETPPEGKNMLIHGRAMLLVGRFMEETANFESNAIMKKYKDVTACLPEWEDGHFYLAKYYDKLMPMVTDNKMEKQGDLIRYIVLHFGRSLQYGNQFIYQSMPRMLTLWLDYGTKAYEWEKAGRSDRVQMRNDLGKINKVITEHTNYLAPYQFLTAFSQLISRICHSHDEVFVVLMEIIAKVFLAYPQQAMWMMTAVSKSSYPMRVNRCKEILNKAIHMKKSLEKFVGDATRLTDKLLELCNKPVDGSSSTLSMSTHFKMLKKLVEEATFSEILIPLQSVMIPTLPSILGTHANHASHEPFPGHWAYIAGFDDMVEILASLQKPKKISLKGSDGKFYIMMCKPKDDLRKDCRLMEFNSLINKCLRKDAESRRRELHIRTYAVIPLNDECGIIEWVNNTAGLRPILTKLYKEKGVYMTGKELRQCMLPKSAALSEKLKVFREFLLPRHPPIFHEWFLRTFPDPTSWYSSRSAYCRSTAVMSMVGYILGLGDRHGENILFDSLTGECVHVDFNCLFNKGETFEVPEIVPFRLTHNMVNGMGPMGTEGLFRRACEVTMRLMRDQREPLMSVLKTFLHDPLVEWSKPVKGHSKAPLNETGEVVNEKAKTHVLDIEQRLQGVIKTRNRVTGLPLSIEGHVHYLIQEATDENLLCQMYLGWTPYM
Sequence of Phosphatidylinositol 4,5-bisphosphate 3-kinase catalytic subunit alpha isoform (P42336 whole entry, canonical isoform): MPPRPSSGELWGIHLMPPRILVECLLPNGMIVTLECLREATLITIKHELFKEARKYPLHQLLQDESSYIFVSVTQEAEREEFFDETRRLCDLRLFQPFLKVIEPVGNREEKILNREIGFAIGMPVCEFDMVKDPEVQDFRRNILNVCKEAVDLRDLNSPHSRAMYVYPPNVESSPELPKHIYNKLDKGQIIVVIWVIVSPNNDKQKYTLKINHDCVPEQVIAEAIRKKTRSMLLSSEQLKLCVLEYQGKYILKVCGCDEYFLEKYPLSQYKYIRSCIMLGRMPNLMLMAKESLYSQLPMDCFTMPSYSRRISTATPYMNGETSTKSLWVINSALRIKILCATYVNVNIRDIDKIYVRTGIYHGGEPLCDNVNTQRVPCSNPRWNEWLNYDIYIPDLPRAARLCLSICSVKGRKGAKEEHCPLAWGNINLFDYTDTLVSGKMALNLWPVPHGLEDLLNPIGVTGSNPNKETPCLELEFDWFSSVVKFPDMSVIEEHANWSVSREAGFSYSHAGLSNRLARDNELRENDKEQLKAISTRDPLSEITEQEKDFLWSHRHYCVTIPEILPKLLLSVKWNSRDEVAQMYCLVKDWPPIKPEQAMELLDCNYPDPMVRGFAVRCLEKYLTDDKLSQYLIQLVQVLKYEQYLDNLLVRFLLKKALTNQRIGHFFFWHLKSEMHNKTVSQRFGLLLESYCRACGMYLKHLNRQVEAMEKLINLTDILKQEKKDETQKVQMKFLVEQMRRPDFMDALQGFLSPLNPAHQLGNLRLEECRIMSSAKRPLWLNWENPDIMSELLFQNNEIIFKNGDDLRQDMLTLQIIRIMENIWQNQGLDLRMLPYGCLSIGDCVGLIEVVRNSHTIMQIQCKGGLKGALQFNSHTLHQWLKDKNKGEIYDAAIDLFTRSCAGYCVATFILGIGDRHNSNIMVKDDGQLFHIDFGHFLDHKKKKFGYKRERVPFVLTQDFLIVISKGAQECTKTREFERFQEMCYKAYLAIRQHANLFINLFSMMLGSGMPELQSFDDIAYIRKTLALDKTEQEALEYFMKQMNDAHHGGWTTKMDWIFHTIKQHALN

IC50 [3]: 6400 nM
IC50 [4]: 13 µM
Structure (SMILES): O=c1cc(N2CCOCC2)oc2c1ccc1ccccc12
IC50 [1]: > 100 µM
IC50 [2]: > 100 µM

IC50 [5]: 40 nM
Structure (SMILES): O=c1cc(N2CCOCC2)oc2c(-c3cccc4c3oc3ccccc34)cccc12

IC50 [5]: 800 nM
Structure (SMILES): CC(=O)c1ccc(-c2cccc3c(=O)cc(N4CCOCC4)oc23)s1

IC50 [6]: 14 nM
IC50 [3]: 1700 nM
IC50 [4]: 5 µM
IC50 [5]: 20 nM
Structure (SMILES): O=c1cc(N2CCOCC2)oc2c(-c3cccc4c3sc3ccccc34)cccc12
IC50 [1]: > 100 µM
IC50 [2]: > 100 µM

IC50 [5]: 600 nM
Structure (SMILES): O=c1cc(N2CCOCC2)oc2c(-c3ccc(CO)cc3)cccc12

IC50 [5]: 300 nM
Structure (SMILES): O=c1cc(N2CCOCC2)oc2c(-c3ccsc3)cccc12

IC50 [5]: 800 nM
Structure (SMILES): O=c1cc(N2CCOCC2)oc2c(-c3cc4ccccc4s3)cccc12

IC50 [5]: 300 nM
Structure (SMILES): O=c1cc(N2CCOCC2)oc2c(-c3cccs3)cccc12

IC50 [5]: 900 nM
Structure (SMILES): COc1ccc(-c2cccc3c(=O)cc(N4CCOCC4)oc23)cc1

IC50 [5]: 1300 nM
Structure (SMILES): O=c1cc(N2CCOCC2)oc2ccccc12

IC50 [5]: 190 nM
Structure (SMILES): CC1CN(c2cc(=O)c3ccc4ccccc4c3o2)CCO1 (stereo not drawn)

IC50 [6]: 1200 nM
IC50 [3]: 2500 nM
Structure (SMILES): O=c1cc(N2CCOCC2)oc2c(-c3ccccc3)cccc12 [LY-294002]
IC50 [1]: > 100 µM
IC50 [2]: > 100 µM

Source: ChEMBL document CHEMBL1138727 (Bioorg Med Chem Lett, 2004)
